Assay results from patent publication US7811605B2, “Method of formation of shape-retentive aggregates of gel particles and their uses” (ULURU Inc., priority 2002, dated 2010).

Assay: Entrapment and release of bromocresol green from particle aggregates in PBS, UV-Visible absorption
Assay type: physicochemical
Settings: 1 mg dye in 2 mL Tween 80 stabilized pHEMA particles, 36 mg/mL, injected into PBS; discrete particles and 50:50 mixtures of two sizes
Description: Injection of a dispersion of particles with a small molecule dissolved in the suspension medium forms an aggregate that traps some of the small molecule. In a typical experiment, 1 mg of bromocresol green dye was dissolved into 2 mL of a suspension of Tween 80 stabilized pHEMA particles (725 nm in diameter) with a hydrated polymer mass of 36 mg/mL. The dispersed particles and dye were injected into a solution of phosphate buffered saline. After 10 minutes of aggregation, the solution was shaken at 10 cycles per second to insure adequate mixing. 2 mL samples of supernatant were taken and characterized by UV-Visible absorption spectroscopy. […] In both cases, most of the small molecule is released within the first 3-5 hours, however, the burst effect is smaller in the mixed aggregate system.

Compound: Cc1c(C2(c3cc(Br)c(O)c(Br)c3C)OS(=O)(=O)c3ccccc32)cc(Br)c(O)c1Br [bromocresol green]
- time within which most of the small molecule is released: 3 to 5 h
